{
  "source": "patent US20080220449A1",
  "about": "“Biomarkers and assays for Alzheimer's disease” (OLIGOMERIX, INC., priority 2007, published 2008)",
  "key": {"[1]": {"biological_target": "T1, tau oligomers containing tau without c-terminal truncation (Homo sapiens, UniProt P10636)", "T1 construct": "only tau oligomers containing tau without c-terminal truncation would be detected; from tissue; host or cells: cerebrospinal fluid of a severe AD patient (post mortem, New York Brain Bank)", "T1 sequence (P10636 1-441 isoform P10636-8)": "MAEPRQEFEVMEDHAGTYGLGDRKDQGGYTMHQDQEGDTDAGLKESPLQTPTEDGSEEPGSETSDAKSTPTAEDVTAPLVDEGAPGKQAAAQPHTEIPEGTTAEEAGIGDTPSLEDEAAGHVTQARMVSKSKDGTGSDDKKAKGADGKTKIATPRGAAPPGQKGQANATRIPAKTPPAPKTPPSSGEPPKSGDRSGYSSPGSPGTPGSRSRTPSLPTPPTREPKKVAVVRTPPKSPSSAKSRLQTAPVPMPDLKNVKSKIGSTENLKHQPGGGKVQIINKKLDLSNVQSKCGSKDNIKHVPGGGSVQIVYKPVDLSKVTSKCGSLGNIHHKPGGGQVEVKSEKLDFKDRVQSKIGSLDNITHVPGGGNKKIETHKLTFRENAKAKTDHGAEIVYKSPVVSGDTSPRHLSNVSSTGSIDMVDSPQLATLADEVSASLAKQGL", "experiment": "ELISA with mAb T46 capture and pAb A11 reporter for curcumin effect on tau-oligomer levels in CSF", "format": "biochemical", "details": "same CSF sample from a patient having severe AD; sample preparation as in Example 11", "method": "Tau oligomer levels based on oligomer conformation was determined using a standard sandwich ELISA where mAb HT7 against tau was used for capture, as mentioned in FIG. 2 (Example 1). After incubation with CSF samples (see FIG. 2 legend) the plates were washed and 100 uL rabbit pAb A11, specific for protein oligomer conformation, was diluted 1000-fold and added to each well. The plate was incubated for one hour at 37° C. and washed. Biotinylated goat anti-rabbit antibody was diluted 10,000-fold in PBST and 50 μL was added to each well. Plates were incubated for 30 min. at 37° C. Detection was done using HRP-neutravidin and QuantaBlu fluorogenic substrate as described for FIG. 2 (Example 1). The results are shown in FIG. 8 (4 severe AD, 5 AD and 3 non-AD CSF samples were tested). Here the assay is specific for tau in association with oligomer conformation and can detect soluble tau oligomers. The combination of a monoclonal antibody against tau with an antibody specific for oligomer conformation is novel. […]\nTau oligomer levels in CSF were determined using antibodies specific for oligomer conformation and tau with intact c-terminus. […]\n(§1) Data analysis for Example 11 (FIG. 13) and Example 12 (FIG. 14) was measured as a percent decrease in tau-oligomers, upon incubation with curcumin. […]\n(§2) FU=(Average fluorescence of triplicate wells for each sample-average fluorescence of the antibody blank wells). […]"}, "[2]": {"system": "soluble tau oligomer", "experiment": "Modified ELISA (mAb HT7 capture, biotinylated mAb HT7 reporter) for curcumin effect on tau-oligomer levels in CSF", "format": "biochemical, human", "method": "FIG. 6 is a schematic diagram illustrating an exemplary method and assay that utilizes standard and modified ELISA to detect tau-monomer, tau pT217, soluble tau oligomer, and tau-amyloid-beta 1-42 complex. Formation of tau oligomers was analyzed using two different ELISA methods to provide verified data. The “modified” ELISA uses the same monoclonal antibody for capture and detection. Insoluble aggregates are removed in the ELISA procedure during washing steps. Only soluble aggregates of tau, not monomers, are detected with this ELISA because the detection and reporter antibody recognizes an epitope which is present only once within tau. […]\nModified ELISA to determine tau-oligomer levels in CSF: Tau oligomer level was determined using modified sandwich ELISA where mAb HT7 against tau was used for capture and biotinylated mAb HT7 as the reporter. […]\nSample preparation: A 5 mM stock solution of curcumin was prepared in 100% ethanol. […] The incubated samples were diluted to 500 μL in buffer and analyzed for tau-oligomers by modified ELISA as described in FIG. 6. […]\nas §1, §2"}},
  "note": "Entries after “also recorded” stand apart in the source; their conditions may differ.",
  "data": [
    {"smiles": "COc1cc(/C=C/C(=O)CC(=O)/C=C/c2ccc(O)c(OC)c2)ccc1O", "note": "[curcumin]", "values": [
      {"measurement": "percent decrease in tau-oligomers upon incubation with curcumin (FIG. 14, mAb T46 / pAb A11 format)", "setting": "[1]", "result": "reduction of tau oligomer levels"},
      {"measurement": "percent decrease in tau-oligomers upon incubation with curcumin (FIG. 13)", "setting": "[2]; CSF from three different severe AD patients, 5 uL of 20 uM curcumin in total volume of 100 uL, one hour at 37° C.", "result": "disruption of soluble tau oligomer; also recorded: reduction of tau oligomer levels"},
      {"measurement": "percent decrease in tau-oligomers upon incubation with curcumin (FIG. 14, modified ELISA format)", "setting": "[2]; one CSF sample from a patient having severe AD, sample preparation as in Example 11", "result": "reduction of tau oligomer levels"}
    ]}
  ]
}
